Results reported in PMC8389907 (Journal of Medicinal Chemistry, 2021).
Read-outs that look alike come from different tables or passages of the source.

Key:
[1] = test system: DU145 cells; assay: MTT cell viability assay, DU145; assay type: cell-based; details: Homo sapiens, DU-145
Method: (§1) The cell lines DU145 (HTB-81, human prostate carcinoma), PC3 (CRL-1435, human prostate adenocarcinoma), MCF7 (HTB-22, human breast adenocarcinoma), MDA-MB231 (HTB-26, human breast adenocarcinoma), and HCT116 (CCL-247, human colorectal carcinoma) were obtained from ATCC (American Type Culture Collection, Manassas, VA, USA); WH1 human fibroblasts were kindly provided by Dr. Guven.[51] All the cells were maintained under standard culture conditions (37 °C; 5% CO2) in the RMPI1640 medium (PC3, MCF7, and MDA-MB231 cells), while DU145 and HCT116 cells were in the DMEM and Iscove’s medium (WH1 cells) supplemented with 10% fetal calf serum, 1% glutamine, and 1% antibiotics mixture; for HCT116 and DU145 cells, 1% sodium pyruvate and 1% non-essential amino acids were also added to the culture medium.
(§2) The 3-(4,5-dimethylthiazol-2-yl)-2,5-diphenyltetrazolium bromide (MTT) assay was performed on all the cell lines tested as previously described[52] with minor modifications. Briefly, according to the growth profiles previously defined for each cell line, adequate numbers of cells were plated in each well of a 96-well plate in 0.1 mL of complete culture medium. Cells were allowed to attach for 24 h before the treatment at 37 °C for 72 h with the compounds at concentrations ranging between 0.1 and 75 μM, bringing the final volume to 0.2 mL/well. Each experiment included eight replications per concentration tested; control samples were run with 0.2% DMSO. At the end of the incubation period, MTT (0.05 mL of a 2 mg/mL stock solution in PBS) was added to each well for 3 h at 37 °C. Cell supernatants were then carefully removed, the blue formazan crystals formed through MTT reduction by metabolically active cells were dissolved in 0.120 mL of DMSO, and the corresponding optical densities were measured at 570 nm using a Universal Microplate Reader EL800 (Bio-Tek, Winooski, VT).
(§3) IC50 values were estimated from the resulting concentration–response curves by nonlinear regression analysis using GraphPad Prism software, v. 5.0 (GraphPad, San Diego, CA, USA). Differences between IC50 values were evaluated statistically by analysis of variance with a Bonferroni post-test for multiple comparisons.

[2] = test system: PC3 cells; assay: MTT cell viability assay, PC3; assay type: cell-based; details: Homo sapiens, PC-3
Method: as §1, §2, §3

[3] = test system: MDA-MB231 cells; assay: MTT cell viability assay, MDA-MB231; assay type: cell-based; details: Homo sapiens, MDA-MB-231
Method: as §1, §2, §3

[4] = test system: HBL100 cells; assay: MTT cell viability assay, non-tumorigenic HBL100; assay type: cell-based; details: Homo sapiens, HBL-100, 72 h treatment
Method: as §2, §3

[5] = test system: MCF7/ADR cells; assay: MTT cell viability assay, DOX-resistant MCF7/ADR; assay type: cell-based, human; details: for IC50: Homo sapiens, NCI/ADR-RES, 72 h treatment, MTT; for R.I. (resistance index): MCF7/ADR vs MCF7
Method: as §2, §3

[6] = test system: HCT116 cells; assay: MTT cell viability assay, HCT116; assay type: cell-based; details: Homo sapiens, HCT-116; supplement csv, unit inferred; read-out: HCT116 IC50
Method: as §1, §2, §3

[7] = test system: WH1 human fibroblasts; assay: MTT cell viability assay, WH1 fibroblasts; assay type: cell-based; details: Fibroblast, 72 h treatment
Method: as §1, §2, §3

[8] = test system: MCF7 cells; assay: MTT cell viability assay, MCF7; assay type: cell-based; details: Homo sapiens
Method: as §1, §2, §3

[9] = supplement csv, unit inferred, read-out: DU145 IC50
[10] = supplement csv, unit inferred, read-out: PC3 IC50
[11] = supplement csv, unit inferred, read-out: MDA-MB231 IC50
[12] = 72 h treatment, MTT, read-out: IC50 MCF7
[13] = 72 h treatment, MTT, read-out: IC50 DU145

| Structure (SMILES) | IC50 [1, 9] | IC50 [2, 10] | IC50 [3, 11] | IC50 [4] | IC50 [5] | R.I. (resistance index) [5] | IC50 [6] | IC50 [7] | IC50 [8, 12] | melting point | IC50 ([8]; supplement csv, unit inferred, read-out: MCF7 IC50) | IC50 [1, 13] | IC50 ([2]; 72 h treatment, MTT, read-out: IC50 PC3) | IC50 ([3]; 72 h treatment, MTT, read-out: IC50 MDA-MB231) |
| --- | --- | --- | --- | --- | --- | --- | --- | --- | --- | --- | --- | --- | --- | --- |
| O=C(O)c1cn(C2CC2)c2cc(N3CCN(c4ccc([N+](=O)[O-])c(C(F)(F)F)c4)CC3)c(F)cc2c1=O [Compound 1a, 1-Cyclopropyl-6-fluoro-7-(4-(4-nitro-3-(trifluoromethyl)phenyl)piperazin-1-yl)-4-oxo-1,4-dihydroquinoline-3-carboxylic Acid] | 7.78 ± 1.52 µM | 6.45 ± 0.19 µM | 8.06 ± 1.05 µM | 7.79 ± 0.66 µM | 8.72 ± 1.25 µM | 1.0 | 9.67 ± 0.36 µM | 9.17 ± 0.6 µM | 8.8 ± 1.59 µM | 296 to 298 °C | – | – | – | – |
| CCn1cc(C(=O)O)c(=O)c2cc(F)c(N3CCN(c4ccc([N+](=O)[O-])c(C(F)(F)F)c4)CC3)cc21 [Compound 1b, 1-Ethyl-6-fluoro-7-(4-(4-nitro-3-(trifluoromethyl)phenyl)piperazin-1-yl)-4-oxo-1,4-dihydroquinoline-3-carboxylic Acid] | 2.85 ± 0.01 µM | 3.07 ± 0.64 µM | 6.93 ± 0.85 µM | 9.26 ± 1.79 µM | 5.63 µM | 1.1 | 10.4 ± 1.5 µM | 5.35 ± 1.14 µM | – | 310 to 312 °C | 5.24 ± 0.7 µM | – | – | – |
| COC(=O)c1cn(C2CC2)c2cc(N3CCN(c4ccc([N+](=O)[O-])c(C(F)(F)F)c4)CC3)c(F)cc2c1=O [Compound 3a, Methyl 1-Cyclopropyl-6-fluoro-7-(4-(4-nitro-3-(trifluoromethyl)phenyl)piperazin-1-yl)-4-oxo-1,4-dihydroquinoline-3-carboxylate] | 5.67 ± 0.06 µM | 15.9 ± 0.5 µM | 10.7 ± 1.9 µM | 10.6 ± 2.4 µM | 19.6 ± 3.2 µM | 1.3 | 6.93 ± 1.53 µM | 8.38 ± 1.2 µM | 15.5 ± 1.2 µM | 265 to 267 °C | – | – | – | – |
| CCn1cc(C(=O)OC)c(=O)c2cc(F)c(N3CCN(c4ccc([N+](=O)[O-])c(C(F)(F)F)c4)CC3)cc21 [Compound 3b, Methyl 1-Ethyl-6-fluoro-7-(4-(4-nitro-3-(trifluoromethyl)phenyl)piperazin-1-yl)-4-oxo-1,4-dihydroquinoline-3-carboxylate] | 6.06 ± 0.51 µM | 15.3 ± 1.2 µM | 10.2 ± 3.1 µM | 12 ± 1.7 µM | 15 ± 2.1 µM | 1.3 | 9.73 ± 2.25 µM | 9 ± 1.91 µM | 11.7 ± 1.4 µM | 236 to 238 °C | – | – | – | – |
| COC(=O)c1cn(C2CC2)c2cc(N3CCN(CCNc4ccc([N+](=O)[O-])c(C(F)(F)F)c4)CC3)c(F)cc2c1=O [Compound 6a, Methyl 1-Cyclopropyl-6-fluoro-7-(4-(2-((4-nitro-3-(trifluoromethyl)phenyl)amino)ethyl)piperazin-1-yl)-4-oxo-1,4-dihydroquinoline-3-carboxylate] | 4.8 ± 0.96 µM | 6.72 ± 0.35 µM | 16.1 ± 2.1 µM | 9.76 ± 0.9 µM | 15.1 ± 2.3 µM | 0.9 | 15.7 ± 2 µM | 10.5 ± 2.5 µM | 16.8 ± 2.4 µM | 231 to 233 °C | – | – | – | – |
| COC(=O)c1cn(C2CC2)c2cc(N3CCN(CCCNc4ccc([N+](=O)[O-])c(C(F)(F)F)c4)CC3)c(F)cc2c1=O [Compound 6b, Methyl 1-Cyclopropyl-6-fluoro-7-(4-(3-((4-nitro-3-(trifluoromethyl)phenyl)amino)propyl)piperazin-1-yl)-4-oxo-1,4-dihydroquinoline-3-carboxylate] | 14 ± 1.4 µM | 3.17 ± 0.47 µM | 3.76 ± 0.94 µM | 12.2 ± 2 µM | 18.76 ± 0.1 µM | 1.5 | 5.21 ± 0.73 µM | 13.2 ± 3.4 µM | 12.1 ± 1.1 µM | 202 to 204 °C | – | – | – | – |
| CCn1cc(C(=O)OC)c(=O)c2cc(F)c(N3CCN(CCNc4ccc([N+](=O)[O-])c(C(F)(F)F)c4)CC3)cc21 [Compound 6c, Methyl 1-Ethyl-6-fluoro-7-(4-(2-((4-nitro-3-(trifluoromethyl)phenyl)amino)ethyl)piperazin-1-yl)-4-oxo-1,4-dihydroquinoline-3-carboxylate] | 4.77 ± 0.99 µM | 9.26 ± 1.29 µM | 11.9 ± 1 µM | 10.8 ± 0.6 µM | 17.2 ± 1 µM | 1.1 | 12.4 ± 2.9 µM | 10.6 ± 1.9 µM | 15.04 ± 0.1 µM | 245 to 247 °C | – | – | – | – |
| CCn1cc(C(=O)OC)c(=O)c2cc(F)c(N3CCN(CCCNc4ccc([N+](=O)[O-])c(C(F)(F)F)c4)CC3)cc21 [Compound 6d, Methyl 1-Ethyl-6-fluoro-7-(4-(3-((4-nitro-3-(trifluoromethyl)phenyl)amino)propyl)piperazin-1-yl)-4-oxo-1,4-dihydroquinoline-3-carboxylate] | 5.49 ± 0.97 µM | 4.1 ± 0.61 µM | 8.89 ± 1.65 µM | 3.68 ± 0.2 µM | 28 ± 1.1 µM | 2.7 | 11.7 ± 2.1 µM | 9.67 ± 1.65 µM | 10.5 ± 1.2 µM | 216 to 218 °C | – | – | – | – |
| O=C(O)c1cn(C2CC2)c2cc(N3CCN(CCNc4ccc([N+](=O)[O-])c(C(F)(F)F)c4)CC3)c(F)cc2c1=O [Compound 7a, 1-Cyclopropyl-6-fluoro-7-(4-(2-((4-nitro-3-(trifluoromethyl)phenyl)amino)ethyl)piperazin-1-yl)-4-oxo-1,4-dihydroquinoline-3-carboxylic Acid] | 2.56 ± 0.21 µM | 2.48 ± 0.42 µM | 2.24 ± 0.18 µM | 9.14 ± 0.44 µM | 14.7 ± 4.2 µM | 4.7 | 5.29 ± 0.72 µM | 5.7 ± 0.92 µM | 3.12 ± 0.62 µM | – | – | < 3 µM | < 3 µM | < 2.5 µM |
| CCn1cc(C(=O)O)c(=O)c2cc(F)c(N3CCN(CCCNc4ccc([N+](=O)[O-])c(C(F)(F)F)c4)CC3)cc21 [Compound 7d, 1-Ethyl-6-fluoro-7-(4-(3-((4-nitro-3-(trifluoromethyl)phenyl)amino)propyl)piperazin-1-yl)-4-oxo-1,4-dihydroquinoline-3-carboxylic Acid] | – | 4.83 ± 1.15 µM | 3.64 ± 0.63 µM | 10.4 ± 0.9 µM | 20 ± 0.3 µM | 3.4 | 5.36 ± 0.65 µM | 8.94 ± 0.91 µM | 5.83 ± 0.82 µM | – | – | 1.56 µM | – | – |
| COc1cccc2c1C(=O)c1c(O)c3c(c(O)c1C2=O)C[C@@](O)(C(=O)CO)C[C@@H]3O[C@H]1C[C@H](N)[C@H](O)[C@H](C)O1 [DOX, doxorubicin, reference compound] | – | – | – | – | 66.9 ± 2.56 µM | – | – | – | – | – | – | – | – | – |
